# Experimental data: patent EP0745599A2, “1-(3-Heterocyclylphenyl)-s-triazine-2,4,6-oxo or thiotrione herbicidal agents” (American Cyanamid Company, priority 1995, dated 1996)
# Legend:
# Format in all cases: in vivo
# Details in all cases: rated four to five weeks after treatment
# [1] = test system: CASSIA OBTUSIFOLIA, L.; experiment: Preemergence herbicidal evaluation, CASOB (Sicklepod); design: key to CASOB: visual rating scale 0-9 vs control
# Description: (§1) Results of herbicide evaluation are expressed on a rating scale (0-9). The scale is based upon a visual observation of plant stand, vigor, malformation, size, chlorosis and overall plant appearance as compared with a control.
# (§2) The preemergence herbicidal activity of the test compounds of the present invention is exemplified by the following tests in which the seeds of a variety of monocotyledonous and dicotyledonous plants are separately mixed with potting soil and planted on top of approximately one inch of soil in separate pint cups. After planting, the cups are sprayed with the selected aqueous acetone solution containing test compound in sufficient quantity to provide the equivalent of about 0.125 to 0.50 kg per hectare of test compound per cup. The treated cups are then placed on greenhouse benches, watered and cared for in accordance with conventional greenhouse procedures. From four to five weeks after treatment, the tests are terminated and each cup is examined and rated according to the rating system provided in Example 42.
# [2] = test system: AMBROSIA ARTEMISIIFOLIA, L.; experiment: Preemergence herbicidal evaluation, AMBEL (Ragweed, Common); design: key to AMBEL: visual rating scale 0-9 vs control
# Description: as §1, §2
# [3] = test system: IPOMOEA SPP.; experiment: Preemergence herbicidal evaluation, IPOSS (Morningglory Spp.); design: key to IPOSS: visual rating scale 0-9 vs control
# Description: as §1, §2
# [4] = test system: ECHINOCHLOA CRUS-GALLI, (L) BEAU; experiment: Postemergence herbicidal evaluation, ECHCG (Barnyardgrass)
# Protocol: (§3) In the tests, seedling plants are grown in jiffy flats for about two weeks. The test compounds are dispersed in 50/50 acetone/water mixtures containing 0.5% TWEEN®20, a polyoxyethylene sorbitan monolaurate surfactant of Atlas Chemical Industries, in sufficient quantities to provide the equivalent of about 0.125 kg to 0.500 kg per hectare of active compound when applied to the plants through a spray nozzle operating at 40 psi for a predetermined time. After spraying, the plants are placed on greenhouse benches and are cared for in the usual manner, commensurate with conventional greenhouse practices. From four to five weeks after treatment, the seedling plants are examined and rated according to the rating system set forth below. Where more than one test is involved for a given compound, the data are averaged.
# as §1
# [5] = test system: ORYZA SATIVA, L. TEBONNET; experiment: Preemergence herbicidal evaluation, ORYSAT (Rice, Tebonnet); design: key to ORYSAT: visual rating scale 0-9 vs control
# Description: as §1, §2
# [6] = test system: GLYCINE MAX(L)MERR. CV. WILLIAMS; experiment: Preemergence herbicidal evaluation, GLXMAW (Soybean, Williams); design: key to GLXMAW: visual rating scale 0-9 vs control
# Description: as §1, §2
# [7] = test system: ECHINOCHLOA CRUS-GALLI, (L) BEAU; experiment: Preemergence herbicidal evaluation, ECHCG (Barnyardgrass); design: key to ECHCG: visual rating scale 0-9 vs control
# Description: as §1, §2
# [8] = test system: SETARIA VIRIDIS, (L) BEAU; experiment: Postemergence herbicidal evaluation, SETVI (Foxtail, Green)
# Protocol: as §3, §1
# [9] = test system: GALIUM APARINE; experiment: Preemergence herbicidal evaluation, GALAP (Galium); design: key to GALAP: visual rating scale 0-9 vs control
# Description: as §1, §2
# [10] = test system: ZEA MAYS L.; experiment: Preemergence herbicidal evaluation, ZEAMX (Corn, Field); design: key to ZEAMX: visual rating scale 0-9 vs control
# Description: as §1, §2
# [11] = test system: ABUTILON THEOPHRASTI, MEDIC.; experiment: Preemergence herbicidal evaluation, ABUTH (Velvetleaf); design: key to ABUTH: visual rating scale 0-9 vs control
# Description: as §1, §2
# [12] = test system: TRITICUM AESTIVUM, CV. APOLLO; experiment: Preemergence herbicidal evaluation, TRZAWO (Wheat, Winter, CV. APOLLO); design: key to TRZAWO: visual rating scale 0-9 vs control
# Description: as §1, §2
# [13] = test system: CASSIA OBTUSIFOLIA, L.; experiment: Postemergence herbicidal evaluation, CASOB (Sicklepod)
# Protocol: as §3, §1
# [14] = test system: SETARIA VIRIDIS, (L) BEAU; experiment: Preemergence herbicidal evaluation, SETVI (Foxtail, Green); design: key to SETVI: visual rating scale 0-9 vs control
# Description: as §1, §2
# [15] = test system: CHENOPODIUM ALBUM, L.; experiment: Preemergence herbicidal evaluation, CHEAL (Lambsquarters, Common); design: key to CHEAL: visual rating scale 0-9 vs control
# Description: as §1, §2
# [16] = test system: ABUTILON THEOPHRASTI, MEDIC.; experiment: Postemergence herbicidal evaluation, ABUTH (Velvetleaf)
# Protocol: as §3, §1
# [17] = test system: TRITICUM AESTIVUM, CV. APOLLO; experiment: Postemergence herbicidal evaluation, TRZAWO (Wheat, Winter, CV. APOLLO)
# Protocol: as §3, §1
structure (smiles),measurement,setting,value
"CCOC(=O)Cn1c(=O)[nH]c(=O)n(-c2ccc(F)c(N3C(=O)C4=C(CCCC4)C3=O)c2)c1=O [Compound 9, Ethyl 3-[3-(1-cyclohexene-1,2-dicarbox-imido)-4-fluorophenyl]tetrahydro-2,4,6-trioxo-s-triazine-1(2H)-acetate]",Herbicide rating (0-9) CASOB,[1]; 0.125 kg/ha,0.0
same,Herbicide rating (0-9) CASOB,[1]; 0.250 kg/ha,0.0
same,Herbicide rating (0-9) CASOB,[1]; 0.500 kg/ha,0.0
same,Herbicide rating (0-9) AMBEL,[2]; 0.125 kg/ha,0.0
same,Herbicide rating (0-9) AMBEL,[2]; 0.250 kg/ha,0.0
same,Herbicide rating (0-9) AMBEL,[2]; 0.500 kg/ha,0.0
same,Herbicide rating (0-9) IPOSS,[3]; 0.125 kg/ha,0.0
same,Herbicide rating (0-9) IPOSS,[3]; 0.250 kg/ha,0.0
same,Herbicide rating (0-9) IPOSS,[3]; 0.500 kg/ha,0.0
same,Herbicide rating (0-9) ECHCG,[4]; 0.125 kg/ha,0.0
same,Herbicide rating (0-9) ECHCG,[4]; 0.250 kg/ha,0.0
same,Herbicide rating (0-9) ECHCG,[4]; 0.500 kg/ha,0.0
same,Herbicide rating (0-9) ORYSAT,[5]; 0.125 kg/ha,0.0
same,Herbicide rating (0-9) ORYSAT,[5]; 0.250 kg/ha,0.0
same,Herbicide rating (0-9) ORYSAT,[5]; 0.500 kg/ha,0.0
same,Herbicide rating (0-9) GLXMAW,[6]; 0.125 kg/ha,0.0
same,Herbicide rating (0-9) GLXMAW,[6]; 0.250 kg/ha,0.0
same,Herbicide rating (0-9) GLXMAW,[6]; 0.500 kg/ha,0.0
same,Herbicide rating (0-9) ECHCG,[7]; 0.125 kg/ha,0.0
same,Herbicide rating (0-9) ECHCG,[7]; 0.250 kg/ha,0.0
same,Herbicide rating (0-9) ECHCG,[7]; 0.500 kg/ha,0.0
same,Herbicide rating (0-9) SETVI,[8]; 0.125 kg/ha,0.0
same,Herbicide rating (0-9) SETVI,[8]; 0.250 kg/ha,0.0
same,Herbicide rating (0-9) SETVI,[8]; 0.500 kg/ha,0.0
same,Herbicide rating (0-9) GALAP,[9]; 0.125 kg/ha,0.0
same,Herbicide rating (0-9) GALAP,[9]; 0.250 kg/ha,0.0
same,Herbicide rating (0-9) GALAP,[9]; 0.500 kg/ha,0.0
same,Herbicide rating (0-9) ZEAMX,[10]; 0.125 kg/ha,0.0
same,Herbicide rating (0-9) ZEAMX,[10]; 0.250 kg/ha,0.0
same,Herbicide rating (0-9) ZEAMX,[10]; 0.500 kg/ha,0.0
same,Herbicide rating (0-9) ABUTH,[11]; 0.125 kg/ha,0.0
same,Herbicide rating (0-9) ABUTH,[11]; 0.250 kg/ha,0.0
same,Herbicide rating (0-9) ABUTH,[11]; 0.500 kg/ha,0.0
same,Herbicide rating (0-9) TRZAWO,[12]; 0.125 kg/ha,0.0
same,Herbicide rating (0-9) TRZAWO,[12]; 0.250 kg/ha,0.0
same,Herbicide rating (0-9) TRZAWO,[12]; 0.500 kg/ha,0.0
same,Herbicide rating (0-9) CASOB,[13]; 0.125 kg/ha,0.0
same,Herbicide rating (0-9) CASOB,[13]; 0.250 kg/ha,0.0
same,Herbicide rating (0-9) CASOB,[13]; 0.500 kg/ha,0.0
same,Herbicide rating (0-9) SETVI,[14]; 0.125 kg/ha,0.0
same,Herbicide rating (0-9) SETVI,[14]; 0.250 kg/ha,0.0
same,Herbicide rating (0-9) SETVI,[14]; 0.500 kg/ha,0.0
same,Herbicide rating (0-9) CHEAL,[15]; 0.125 kg/ha,0.0
same,Herbicide rating (0-9) CHEAL,[15]; 0.250 kg/ha,0.0
same,Herbicide rating (0-9) CHEAL,[15]; 0.500 kg/ha,0.0
"CC(C)OC(=O)Cn1c(=O)n(C)c(=O)n(-c2cc(N=c3sc(=O)n4n3CCCC4)c(F)cc2Cl)c1=O [Compound 13, Isopropyl 3-{2-chloro-4-fluoro-5-[(tetra-hydro-3-oxo-1H,3H-[1,3,4]thiadiazolo[3,4-a]pyridazin-1-ylidene)amino]phenyl}tetra-hydro-5-methyl-2,4,6-trioxo-s-triazine-1(2H)-acetate]",Herbicide rating (0-9) ABUTH,[16]; 0.125 kg/ha,9.0
same,Herbicide rating (0-9) ABUTH,[16]; 0.250 kg/ha,9.0
same,Herbicide rating (0-9) ABUTH,[16]; 0.500 kg/ha,9.0
same,CASOB,[1]; Rate 0.125 kg/ha,5.0
same,CASOB,[1]; Rate 0.250 kg/ha,9.0
same,CASOB,[1]; Rate 0.500 kg/ha,9.0
same,AMBEL,[2]; Rate 0.125 kg/ha,0.0
same,AMBEL,[2]; Rate 0.250 kg/ha,3.0
same,AMBEL,[2]; Rate 0.500 kg/ha,8.0
same,IPOSS,[3]; Rate 0.125 kg/ha,2.0
same,IPOSS,[3]; Rate 0.250 kg/ha,5.0
same,IPOSS,[3]; Rate 0.500 kg/ha,6.0
same,Herbicide rating (0-9) ECHCG,[4]; 0.125 kg/ha,0.0
same,Herbicide rating (0-9) ECHCG,[4]; 0.250 kg/ha,0.0
same,Herbicide rating (0-9) ECHCG,[4]; 0.500 kg/ha,0.0
same,ORYSAT,[5]; Rate 0.125 kg/ha,0.0
same,ORYSAT,[5]; Rate 0.250 kg/ha,1.0
same,ORYSAT,[5]; Rate 0.500 kg/ha,2.0
same,GLXMAW,[6]; Rate 0.125 kg/ha,0.0
same,GLXMAW,[6]; Rate 0.250 kg/ha,0.0
same,GLXMAW,[6]; Rate 0.500 kg/ha,0.0
same,ECHCG,[7]; Rate 0.125 kg/ha,0.0
same,ECHCG,[7]; Rate 0.250 kg/ha,0.0
same,ECHCG,[7]; Rate 0.500 kg/ha,0.0
same,Herbicide rating (0-9) SETVI,[8]; 0.125 kg/ha,1.0
same,Herbicide rating (0-9) SETVI,[8]; 0.250 kg/ha,1.0
same,Herbicide rating (0-9) SETVI,[8]; 0.500 kg/ha,1.0
same,GALAP,[9]; Rate 0.125 kg/ha,9.0
same,GALAP,[9]; Rate 0.250 kg/ha,8.0
same,GALAP,[9]; Rate 0.500 kg/ha,9.0
same,Herbicide rating (0-9) TRZAWO,[17]; 0.125 kg/ha,3.5
same,Herbicide rating (0-9) TRZAWO,[17]; 0.250 kg/ha,3.5
same,Herbicide rating (0-9) TRZAWO,[17]; 0.500 kg/ha,3.5
same,ZEAMX,[10]; Rate 0.125 kg/ha,0.0
same,ZEAMX,[10]; Rate 0.250 kg/ha,0.0
same,ZEAMX,[10]; Rate 0.500 kg/ha,1.0
same,ABUTH,[11]; Rate 0.125 kg/ha,9.0
same,ABUTH,[11]; Rate 0.250 kg/ha,9.0
same,ABUTH,[11]; Rate 0.500 kg/ha,9.0
same,TRZAWO,[12]; Rate 0.125 kg/ha,0.0
same,TRZAWO,[12]; Rate 0.250 kg/ha,0.0
same,TRZAWO,[12]; Rate 0.500 kg/ha,1.0
same,SETVI,[14]; Rate 0.125 kg/ha,0.0
same,SETVI,[14]; Rate 0.250 kg/ha,7.0
same,SETVI,[14]; Rate 0.500 kg/ha,7.0
same,CHEAL,[15]; Rate 0.125 kg/ha,9.0
same,CHEAL,[15]; Rate 0.250 kg/ha,9.0
same,CHEAL,[15]; Rate 0.500 kg/ha,9.0
